Source: ChEMBL document CHEMBL5030514, “Discovery of Anti-TNBC Agents Targeting PTP1B: Total Synthesis, Structure-Activity Relationship, In Vitro and In Vivo Investigations of Jamunones” (J Med Chem, 2021)
Calls of active or inactive are those of the source. The calls are words filed in the database; no cut-off is given here.

How the values were obtained:
MDA-MB-231 [1] = experiment: Cell cycle arrest in human MDA-MB-231 cells assessed as downregulation of CDK2 expression by Western blot analysis; assay type: functional, cell-based
[2] = Selective index, ratio of IC50 for HUVEC cells to IC50 of MDA-MB-231 cells; assay type: toxicity; conditions: human, HUVEC cells versus MDA-MB-231 cells; read-out: Selectivity Index
MDA-MB-231 [3] = experiment: Induction of mitochondrial apoptosis in human MDA-MB-231 cells assessed as accumulation of reactive oxygen species by flow cytometry; assay type: functional, cell-based
MCF7 [4] = experiment: Cell cycle arrest in human MCF-7 cells assessed as downregulation of CDK2 expression by Western blot analysis; assay type: functional, cell-based
MCF7 [5] = experiment: Cell cycle arrest in human MCF7 cells assessed as accumulation of cells at S phase at 15 uM measured after 24 hrs by propidium iodide staining based flow cytometry (reference value: 16.8%); assay type: functional
MCF7 [6] = experiment: Cell cycle arrest in human MCF-7 cells assessed as downregulation of cyclin D1 expression by Western blot analysis; assay type: functional, cell-based
MDA-MB-231 [7] = experiment: Effect on Akt expression in human MDA-MB-231 cells by Western blot analysis; assay type: functional, cell-based
MDA-MB-231 [8] = experiment: Cell cycle arrest in human MDA-MB-231 cells assessed as downregulation of cyclin E1 expression by Western blot analysis; assay type: functional, cell-based
MCF7 [9] = experiment: Induction of mitochondrial apoptosis in human MCF7 cells assessed as viable cells at 15 uM measured after 24 hrs by FITC -annexin V/PI double staining based flow cytometric analysis (reference value: 93.2%); assay type: functional; conditions: read-out: Activity
MDA-MB-231 [10] = experiment: Cell cycle arrest in human MDA-MB-231 cells assessed as downregulation of cyclin D3 expression by Western blot analysis; assay type: functional, cell-based

In the case of `CCCC/C=C/CCCCCCCCCC1(O)CC(=O)c2c(O)c(C)c(O)c(C)c2O1` (stereo not given), the Activity (MDA-MB-231 [1]) is reported as “Dose-Dependent Effect”, the selectivity ratio [2] is reported as 6.78 and the Activity (MDA-MB-231 [3]) is reported as “Active”. The Activity (MCF7 [4]) was “Dose-Dependent Effect”, the Activity (MCF7 [5]) was 10.3% and the Activity (MCF7 [6]) was “Dose-Dependent Effect”. The Activity (MDA-MB-231 [7]) was “inactive”, the Activity (MDA-MB-231 [8]) was “Dose-Dependent Effect” and the viability at 15 µM (MCF7 [9]) was 78.7%. The Activity (MDA-MB-231 [10]) was “Dose-Dependent Effect”.
